Assay [1] deals with HCV genotype 1a (H77 strain) replicon in HUH-7 cells. The assay can be described thus: HCV replicon luciferase reporter assay, genotype 1a. It counts as cell-based. Particulars: Hepatitis C virus, Huh-7, 72 h, HCV genotype 1a replicon luciferase, 3 days incubation. A digest of the protocol:
(§1)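 Replicon inhibition for both genotypes was measured as Renilla luciferase signal (EnduRen, 7.5 μM final, 2 h) after 3-day, 37° C exposure of replicon-bearing HUH-7 cells in 4% FCS DMEM, 0.5% DMSO. The 1b construct carries S1179I; the 1a H77 construct carries P1496L and S2204I. Twenty-point, 3-fold dilutions were fitted four-parametrically for EC50, and CC50 was taken from multiplexed Cell Titer-Blue.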
(In general: In antiviral work, replicon cells carry a viral genome segment that copies itself.)

In assay [2] the test system is HCV genotype 1b (Con1) replicon in HUH-7 cells. Briefly: HCV replicon luciferase reporter assay, genotype 1b. The settings on record: Hepatitis C virus, Huh-7, 72 h, HCV genotype 1b replicon luciferase, 3 days incubation. The assay is classed as cell-based. A digest of the protocol: as §1

The structures appear in SMILES notation. Read-outs that look alike come from different tables or passages of the source.

Usually EC50 stands for the midpoint of the concentration-response curve. For the compound `CC[C@@H]1C[C@H](C)CC/C=C\[C@@H]2C[C@@]2(C(=O)NS(=O)(=O)C2(C)CC2)NC(=O)[C@@H]2C[C@@H](Oc3nc(OC)cc4ccccc34)CN2C(=O)[C@H]1NC(=O)OC(C)(C)C(F)(F)F` [Compound 6007, 1,1,1-trifluoro-2-methylpropan-2-yl((2R,6S,7R,9R,13aS,14aR,16aS,Z)-7-ethyl-2-((3-methoxyisoquinolin-1-yl)oxy)-9-methyl-14a-(((1-methylcyclopropyl)sulfonyl)carbamoyl)-5,16-dioxo-1,2,3,5,6,7,8,9,10,11,13a,14,14a,15,16,16a-hexadecahydrocyclopropa[e]pyrrolo[1,2-a][1,4]diazacyclopentadecin-6-yl)carbamate], the EC50 is under 5.46 nM in assay [1] (read-out: LE_1a (EC50, range)) and under 5.46 nM in assay [2] (read-out: LE_1b (EC50, range)).

Take `COc1cc2ccccc2c(O[C@@H]2C[C@H]3C(=O)N[C@]4(C(=O)NS(=O)(=O)C5(C)CC5)C[C@H]4/C=C\CC[C@H](C)C[C@@H](C)[C@H](NC(=O)OC(C)(C)C)C(=O)N3C2)n1` [Compound 6008, tert-butyl ((2R,6S,7R,9S,13aS,14aR,16aS,Z)-2-((3-methoxyisoquinolin-1-yl)oxy)-7,9-dimethyl-14a-(((1-methylcyclopropyl)sulfonyl)carbamoyl)-5,16-dioxo-1,2,3,5,6,7,8,9,10,11,13a,14,14a,15,16,16a-hexadecahydrocyclopropa[e]pyrrolo[1,2-a][1,4]diazacyclopentadecin-6-yl)carbamate]: the EC50 is under 5.46 nM in assay [1] (read-out: LE_1a (EC50, range)) and under 5.46 nM in assay [2] (read-out: LE_1b (EC50, range)).

For `COc1cc2ccccc2c(O[C@@H]2C[C@H]3C(=O)N[C@]4(C(=O)NS(=O)(=O)C5(C)CC5)C[C@H]4/C=C\CC[C@@H](C)C[C@@H](C)[C@H](NC(=O)OC(C)(C)C)C(=O)N3C2)n1` [Compound 6009, tert-butyl ((2R,6S,7R,9R,13aS,14aR,16aS,Z)-2-((3-methoxyisoquinolin-1-yl)oxy)-7,9-dimethyl-14a-(((1-methylcyclopropyl)sulfonyl)carbamoyl)-5,16-dioxo-1,2,3,5,6,7,8,9,10,11,13a,14,14a,15,16,16a-hexadecahydrocyclopropa[e]pyrrolo[1,2-a][1,4]diazacyclopentadecin-6-yl)carbamate], the EC50 in assay [1] (read-out: LE_1a (EC50)) is 1.12 nM; in assay [1] (read-out: LE_1a (EC50, range)), under 5.46 nM; in assay [2] (read-out: LE_1b (EC50)) it was 0.3 nM; in assay [2] (read-out: LE_1b (EC50, range)) it was under 5.46 nM.

As to `COc1cc2ccccc2c(O[C@@H]2C[C@H]3C(=O)N[C@]4(C(=O)NS(=O)(=O)C5CC5)C[C@H]4/C=C\CC[C@@H](C)C[C@@H](C)[C@H](NC(=O)OC(C)(C)C)C(=O)N3C2)n1` [Compound 6011, tert-butyl ((2R,6S,7R,9R,13aS,14aR,16aS,Z)-14a-((cyclopropylsulfonyl)carbamoyl)-2-((3-methoxyisoquinolin-1-yl)oxy)-7,9-dimethyl-5,16-dioxo-1,2,3,5,6,7,8,9,10,11,13a,14,14a,15,16,16a-hexadecahydrocyclopropa[e]pyrrolo[1,2-a][1,4]diazacyclopentadecin-6-yl)carbamate], the EC50 in assay [1] (read-out: LE_1a (EC50, range)) was under 5.46 nM; in assay [2] (read-out: LE_1b (EC50, range)) it was under 5.46 nM.

With `COc1cc2ccccc2c(O[C@@H]2C[C@H]3C(=O)N[C@]4(C(=O)NS(=O)(=O)C5(C)CC5)C[C@H]4/C=C\CC[C@@H](C)C[C@@H](C)[C@H](NC(=O)OC(C)(C)C(F)(F)F)C(=O)N3C2)n1` [Compound 6015, 1,1,1-trifluoro-2-methylpropan-2-yl((2R,6S,7R,9R,13aS,14aR,16aS,Z)-2-((3-methoxyisoquinolin-1-yl)oxy)-7,9-dimethyl-14a-(((1-methylcyclopropyl)sulfonyl)carbamoyl)-5,16-dioxo-1,2,3,5,6,7,8,9,10,11,13a,14,14a,15,16,16a-hexadecahydrocyclopropa[e]pyrrolo[1,2-a][1,4]diazacyclopentadecin-6-yl)carbamate], the EC50 is 1.19 nM in assay [1] (read-out: LE_1a (EC50)); under 5.46 nM in assay [1] (read-out: LE_1a (EC50, range)); 0.24 nM in assay [2] (read-out: LE_1b (EC50)); under 5.46 nM in assay [2] (read-out: LE_1b (EC50, range)).

Regarding `COc1cc2ccccc2c(O[C@@H]2C[C@H]3C(=O)N[C@]4(C(=O)NS(=O)(=O)C5(CF)CC5)C[C@H]4/C=C\CC[C@@H](C)C[C@@H](C)[C@H](NC(=O)OC(C)(C)C(F)(F)F)C(=O)N3C2)n1` [Compound 6016], the EC50 in assay [1] (GETYPE1A, read-out: LE_1a (EC50, range)) was under 5.46 nM; in assay [2] (GETYPE1B, read-out: LE_1b (EC50, range)) it was under 5.46 nM.

As for `COc1cc2ccccc2c(O[C@@H]2C[C@H]3C(=O)N[C@]4(C(=O)NS(=O)(=O)C5CC5)C[C@H]4/C=C\CC[C@H](C)C[C@@H](C)[C@H](NC(=O)OC(C)(C)C(F)(F)F)C(=O)N3C2)n1` [Compound 6017, 1,1,1-trifluoro-2-methylpropan-2-yl((2R,6S,7R,9S,13aS,14aR,16aS,Z)-14a-((cyclopropylsulfonyl)carbamoyl)-2-((3-methoxyisoquinolin-1-yl)oxy)-7,9-dimethyl-5,16-dioxo-1,2,3,5,6,7,8,9,10,11,13a,14,14a,15,16,16a-hexadecahydrocyclopropa[e]pyrrolo[1,2-a][1,4]diazacyclopentadecin-6-yl)carbamate], the EC50 in assay [1] (read-out: LE_1a (EC50, range)) was under 5.46 nM; in assay [2] (read-out: LE_1b (EC50, range)) it was under 5.46 nM.

As to `COc1cc2ccccc2c(O[C@@H]2C[C@H]3C(=O)N[C@]4(C(=O)NS(=O)(=O)C5CC5)C[C@H]4/C=C\CC[C@@H](C)C[C@@H](C)[C@H](NC(=O)OC(C)(C)C(F)(F)F)C(=O)N3C2)n1` [Compound 6018, 1,1,1-trifluoro-2-methylpropan-2-yl((2R,6S,7R,9R,13aS,14aR,16aS,Z)-14a-((cyclopropylsulfonyl)carbamoyl)-2-((3-methoxyisoquinolin-1-yl)oxy)-7,9-dimethyl-5,16-dioxo-1,2,3,5,6,7,8,9,10,11,13a,14,14a,15,16,16a-hexadecahydrocyclopropa[e]pyrrolo[1,2-a][1,4]diazacyclopentadecin-6-yl)carbamate], the EC50 in assay [1] (read-out: LE_1a (EC50, range)) is under 5.46 nM; in assay [2] (read-out: LE_1b (EC50, range)), under 5.46 nM.

Take `C[C@@H]1CC/C=C\[C@@H]2C[C@@]2(C(=O)NS(=O)(=O)C2(C)CC2)NC(=O)[C@@H]2C[C@@H](Oc3nc4c(c5ccccc35)OCCC4)CN2C(=O)[C@@H](NC(=O)OC(C)(C)C)[C@H](C)C1` [Compound 6020, tert-butyl ((2R,6S,7R,9R,13aS,14aR,16aS,Z)-2-((3,4-dihydro-2H-pyrano[3,2-c]isoquinolin-6-yl)oxy)-7,9-dimethyl-14a-(((1-methylcyclopropyl)sulfonyl)carbamoyl)-5,16-dioxo-1,2,3,5,6,7,8,9,10,11,13a,14,14a,15,16,16a-hexadecahydrocyclopropa[e]pyrrolo[1,2-a][1,4]diazacyclopentadecin-6-yl)carbamate]: the EC50 was under 5.46 nM in assay [1] (read-out: LE_1a (EC50, range)) and under 5.46 nM in assay [2] (read-out: LE_1b (EC50, range)).

As for `C[C@@H]1CC/C=C\[C@@H]2C[C@@]2(C(=O)NS(=O)(=O)C2(C)CC2)NC(=O)[C@@H]2C[C@@H](Oc3nc4c(c5ccccc35)OCCC4)CN2C(=O)[C@@H](NC(=O)OC(C)(C)C(F)(F)F)[C@H](C)C1` [Compound 6022, 1,1,1-trifluoro-2-methylpropan-2-yl((2R,6S,7R,9R,13aS,14aR,16aS,Z)-2-((3,4-dihydro-2H-pyrano[3,2-c]isoquinolin-6-yl)oxy)-7,9-dimethyl-14a-(((1-methylcyclopropyl)sulfonyl)carbamoyl)-5,16-dioxo-1,2,3,5,6,7,8,9,10,11,13a,14,14a,15,16,16a-hexadecahydrocyclopropa[e]pyrrolo[1,2-a][1,4]diazacyclopentadecin-6-yl)carbamate], the EC50 in assay [1] (read-out: LE_1a (EC50, range)) is under 5.46 nM; in assay [2] (read-out: LE_1b (EC50, range)) it was under 5.46 nM.

Take `CC[C@@H]1C[C@@H](C)CC/C=C\[C@@H]2C[C@@]2(C(=O)NS(=O)(=O)C2(C)CC2)NC(=O)[C@@H]2C[C@@H](Oc3nc4c(c5ccccc35)OCCC4)CN2C(=O)[C@H]1NC(=O)OC(C)(C)C` [Compound 6023, tert-butyl ((2R,6S,7R,9S,13aS,14aR,16aS,Z)-2-((3,4-dihydro-2H-pyrano[3,2-c]isoquinolin-6-yl)oxy)-7-ethyl-9-methyl-14a-(((1-methylcyclopropyl)sulfonyl)carbamoyl)-5,16-dioxo-1,2,3,5,6,7,8,9,10,11,13a,14,14a,15,16,16a-hexadecahydrocyclopropa[e]pyrrolo[1,2-a][1,4]diazacyclopentadecin-6-yl)carbamate]: the EC50 in assay [1] (read-out: LE_1a (EC50, range)) was in the range of 4.82 to 103 nM; in assay [2] (read-out: LE_1b (EC50, range)), 4.82 to 103 nM.

Take `CC[C@@H]1C[C@H](C)CC/C=C\[C@@H]2C[C@@]2(C(=O)NS(=O)(=O)C2(C)CC2)NC(=O)[C@@H]2C[C@@H](Oc3nc4c(c5ccccc35)OCCC4)CN2C(=O)[C@H]1NC(=O)OC(C)(C)C` [Compound 6024, tert-butyl ((2R,6S,7R,9R,13aS,14aR,16aS,Z)-2-((3,4-dihydro-2H-pyrano[3,2-c]isoquinolin-6-yl)oxy)-7-ethyl-9-methyl-14a-(((1-methylcyclopropyl)sulfonyl)carbamoyl)-5,16-dioxo-1,2,3,5,6,7,8,9,10,11,13a,14,14a,15,16,16a-hexadecahydrocyclopropa[e]pyrrolo[1,2-a][1,4]diazacyclopentadecin-6-yl)carbamate]: the EC50 in assay [1] (read-out: LE_1a (EC50, range)) is under 5.46 nM; in assay [2] (read-out: LE_1b (EC50, range)) it was under 5.46 nM.

These data come from patent US9499550B2 (BRISTOL-MYERS SQUIBB COMPANY, priority 2012, dated 2016).
